This passage reports IC50 results from ChEMBL document CHEMBL3880393, “2-(Pyridin-2-ylamino)-pyrido[2,3-d]pyrimidin-7-ones” (2003).

In general, IC50 refers to the concentration at which inhibition is half-maximal. Lower therefore signals higher potency.

The target in the experiment is Fibroblast growth factor receptor (Homo sapiens, UniProt P22607+P11362+P22455+P21802). As to the kind of experiment: Inhibition of FGFR (unknown origin) using poly (4:1) glutamate-tyrosine substrate and [gamma32P]ATP incubated for 10 mins by beta plate counter based assay. It counts as protein assay.

SMILES strings stand for the structures.

`O=c1ccc2cnc(Nc3ccccc3)nc2n1C1CCCC1` returned an IC50 of 2.98 µM.
